In EPA's ToxValDB 9.5 (doi:10.2903/j.efsa.2017.4980):
In brackets after ≈: the same amount, converted by molar mass.

How the values were obtained:
Typhlodromus pyri = assay: LR50; higher = less toxic; settings: not reported; mortality
Landoltia sp. = settings: chronic/long-term; duration: 14 days
Canidae = settings: oral, Dog Other, organ weight
Apis mellifera = settings: acute, mortality
Tagia sp. = settings: acute; duration: 14 days; mortality
Anas platyrhynchos = settings: reproductive

CCC(C)(NC(=O)c1cc(Cl)c(C)c(Cl)c1)C(=O)CCl (configuration not stated) [Zoxamide]
LR50 (Typhlodromus pyri): > 300 g/ha
LC50 (Neomysis kadiakensis; acute, duration: 96 hours, mortality): 0.076 mg/L (≈ 0.226 µM)
NOEC (Neomysis kadiakensis; chronic/long-term, duration: 27 days): 0.0072 mg/L
NOEC (Landoltia sp.): 0.009 mg/L
NOAEL (Canidae; chronic, duration: 1 years): 50 mg/kg-day
NOAEL (Canidae; subchronic, duration: 90 days): 50 mg/kg-day
LD50 (Apis mellifera; dermal): > 100 µg/piece
LD50 (Apis mellifera; oral, unspecified): > 33 µg/piece
LC50 (Oncorhynchus mykiss; acute, duration: 96 hours, oral, feed, mortality): 0.16 mg/L (≈ 0.475 µM)
NOEC (Oncorhynchus mykiss; chronic/long-term, duration: 95 days): 0.00348 mg/L
LC50 (Tagia sp.): > 1070 mg/kg
NOEC (Tagia sp.): 66.7 mg/kg
LD50 (Colinus virginianus; acute, oral, mortality): > 2000 mg/kg-day
NOEC (Colinus virginianus; reproduction developmental): 171 mg/kg-day
NOEC (Anas platyrhynchos): 123 mg/kg-day
LD50 (Rattus norvegicus; acute, oral, mortality): > 5000 mg/kg-day
NOAEL (Rattus norvegicus; reproduction developmental, body weight): 360 mg/kg-day
